According to patent US5326786A, “5,6,7,9-tetrahydro-1,2,3-trimethoxy-9-oxobenzo[alpha]heptalene derivative and pharmaceutical use” (Ohgen Research Laboratories Ltd., priority 1992, dated 1994):
≈ marks a conversion by molar mass, not a printed value. Where “and” joins values, the source holds several entries; their conditions need not be identical. Equal values may be shown once. Where a name gives a salt, the structure may show the parent alone.

Legend:
[1] = tested on: p388/S mouse leukemic cells; experiment: In vitro cancer cell proliferation inhibiting test (1); type: cell-based; conditions: 48 h, read-out: IC50 (50% proliferation inhibitory concentration), RPMI 1640 with 10% fetal bovine serum, cultured for 2 days
Experimental: (§1) (1) 10^6 each of mouse leukemic cells p388/S and adriamycin-resistant mouse leukemic cells p388/ADR are suspended in RPMI 1640 media each containing 10% fetal bovine serum, respectively, and cultured for 2 days in the presence of a test compound (this was used after it was dissolved in dimethylsulfoxide to 1 mg/ml and the solution was diluted with a phosphate buffer).

[2] = tested on: adriamycin-resistant mouse leukemic cells p388/ADR; experiment: as above; type: cell-based; conditions: 48 h, read-out: IC50 (50% proliferation inhibitory concentration), RPMI 1640 with 10% fetal bovine serum, cultured for 2 days
Experimental: as §1

cancer cells = conditions: known compounds, background; cited from earlier work
[3] = known compounds, background; cited from earlier work
CDF male mice = experiment: Acute toxicity test; type: in vivo, mouse; conditions: intraperitoneal
Acute toxicity test = type: in vivo, mouse; conditions: mouse, in vivo, ip; intraperitoneal; CDF male mice; 10 days observation; Litchfield Wilcoxon method; printed interval 233 to 310 mg/kg
[4] = tested on: p388/S mouse leukemic cells; experiment: In vitro cancer cell proliferation inhibiting test (2), Trypan Blue living cell count; type: cell-based
Experimental: (§2) (2) Mouse leukemic cells p388/S and adriamycin-resistant mouse leukemic cells P388/ADR subculturally transplanted in the abdominal cavity of mice were taken out together with the asites therefrom, respectively, and after washing, suspended in RPMI 1640 media (each containing 10% fetal bovine serum and 10 μM 2-mercaptoethanol) to 2×10^5 cells/ml, respectively.
(§3) Test solutions (solutions of the compound of the later-described Example 3 in phosphate-buffered physiological saline) were added to portions of each of these cell suspensions, respectively; and the mixtures were separately put into a 24-well culture plate and subjected to culture for 2 days in a 5% carbon dioxide culturing vessel.

[5] = tested on: adriamycin-resistant mouse leukemic cells p388/ADR; experiment: as above; type: cell-based
Experimental: as §2, §3

SMILES	IC50 [1]	IC50 [2]	carcinostatic action (cancer cells)	toxicity [3]	other results
COc1cc2c(c(OC)c1OC)-c1ccc(OC)c(=O)cc1C(NCC1COC(C)(C)O1)CC2 (racemic) [DL-N-(O,O-isopropylideneglyceryl)deacetylcolchicine]	0.013 µg/mL (≈ 0.0276 µM)	0.13 µg/mL (≈ 0.276 µM)			
COc1cc2c(c(OC)c1OC)-c1ccc(OC)c(=O)cc1[C@@H](NC(C)=O)CC2 [Colchicine, colchicine]			no sufficient carcinostatic action	strong toxicity	
COc1cc2c(c(OC)c1OC)-c1ccc(OC)c(=O)cc1C(NC[C@H]1COC(C)(C)O1)CC2 (stereo partly drawn) [D-N-(O,O-isopropylideneglyceryl)deacetylcolchicine]	0.014 µg/mL (≈ 0.0297 µM)	0.038 µg/mL (≈ 0.0806 µM)			
COc1cc2c(c(OC)c1OC)-c1ccc(OC)c(=O)cc1C(NC[C@@H]1COC(C)(C)O1)CC2 (stereo partly drawn) [Example 3, L-N-(O,O-isopropylideneglycerol)deacetylcolchicine]	0.018 µg/mL (≈ 0.0382 µM)	0.14 µg/mL (≈ 0.297 µM)			body weight change (CDF male mice; 10 days observation): tended to decrease up to 2 to 4 days after administration, but thereafter increased gradually; acute toxicity symptoms (CDF male mice; high administration groups, on and after one day after administration): the lie of hair got worse on and after one day after administration, and cases where diarrhea or loss of hair arose were also observed; LD50 at 240 h (Acute toxicity test): 269 mg/kg
CNc1ccc2c(cc1=O)C(NCC1COC(C)(C)O1)CCc1cc(OC)c(OC)c(OC)c1-2 (centres unmarked) [N'-(O,O-isopropylideneglyceryl)-N-methyldeacetylcolchiceinamide tartrate salt]					IC50 ([4]; Mus musculus, P388/S, 48 h, read-out: IC50 (50% proliferation inhibitory concentration), p388/S, 2 days, experiment carried out three times, one value per experiment): 0.0135 µg/mL; IC50 (50% proliferation inhibitory concentration), p388/S ([4]; p388/S, 2 days, experiment carried out three times, one value per experiment, tartrate salt): 12.8 ng/mL and 14.9 ng/mL; IC50 (50% proliferation inhibitory concentration), P388/ADR ([5]; 2 days, experiment carried out three times, one value per experiment, tartrate salt): 16.4 ng/mL and 19.2 ng/mL; IC50 ([5]; Mus musculus, 48 h, read-out: IC50 (50% proliferation inhibitory concentration), P388/ADR, 2 days, experiment carried out three times, one value per experiment): 0.018 µg/mL
CNc1ccc2c(cc1=O)[C@@H](NC(C)=O)CCc1cc(OC)c(OC)c(OC)c1-2 [N-methylcolchiceinamide]			no sufficient carcinostatic action	strong toxicity	
